{
  "source": "patent US20260029420A1",
  "about": "“ANTI-CB2 ANTIBODIES AND THEIR USE IN A FLOW CYTOMETRY ASSAY TO MEASURE CELL SURFACE CB2 EXPRESSION” (Hoffmann-La Roche Inc., priority 2022, published 2026)",
  "key": {"CB2 [1]": {"target": "T1, CB2 (Macaca fascicularis, UniProt G7NVV5)", "T1 sequence (G7NVV5 1-360)": "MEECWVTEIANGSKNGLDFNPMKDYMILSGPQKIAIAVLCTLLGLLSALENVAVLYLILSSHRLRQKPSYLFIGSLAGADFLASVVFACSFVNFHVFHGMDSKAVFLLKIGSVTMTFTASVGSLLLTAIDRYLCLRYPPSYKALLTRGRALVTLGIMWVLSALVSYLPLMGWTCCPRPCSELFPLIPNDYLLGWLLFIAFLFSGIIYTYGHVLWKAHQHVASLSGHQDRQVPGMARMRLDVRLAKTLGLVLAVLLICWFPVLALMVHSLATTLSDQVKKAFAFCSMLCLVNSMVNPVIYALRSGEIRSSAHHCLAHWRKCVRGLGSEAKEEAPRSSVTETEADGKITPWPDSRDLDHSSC", "experiment": "In vivo CB2 internalization on B-cells upon oral dosing in Cynomolgus monkeys", "design": "species or system Cynomolgus monkey", "protocol": "FIG. 11: In vivo feasibility for the new CB2 flow cytometry assay to monitor pharmacodynamic response in vitro on B-cells upon oral dosing. Six healthy Cynomolgus monkeys were dosed with three different doses of an oral micro suspension of RG7774 with two animals per dose group. Blood drawn at different time points was incubated with the anti-human CB2 antibody 1/622. The expression of CB2 on the surface of B-cells was analyzed using a lineage marker mix specific for B-cells and T-cells. The B/T-cell CB2 MFI ratio was calculated and normalized to baseline. 0 μM served as 100% baseline receptor expression. For the animal Mina, blood samples could only be taken up to 1 hour after experimental start, since the animal had to be remove of the study due to a rectal prolapse.\nFIG. 12: Single dose in vivo study monitoring the pharmacodynomic effect of RG7774 on CB2 expression on B-cells in Cynomolgus upon oral dosing. Three healthy cynomolgus monkeys were dosed with 100 mg/kg of the CB2 agonist RG7774. The blood draw at different time points was followed by the incubation with the anti-human CB2 antibody 1/622. The expression of CB2 on the surface of B-cells was analyzed using a lineage marker mix specific for B-cells and T-cells. The B/T-cell CB2 MFI ratio was calculated and normalized to baseline. 0 μM served as 100% baseline receptor expression. […] Due to a storage effect of the antibody working dilution (5 μg/sample) of the anti-human CB2 Ab 1/622 the 4 and 7 hours' time point have been excluded. The working dilution of this antibody is only stable for 2 hours on ice.\nThe feasibility of applying the newly developed CB2 flow cytometry assay as an assay to monitor pharmacodynamic response to oral doses of RG7774 was evaluated in three groups of two Cynomolgus monkeys. Upon oral administration of three different single doses of a micro suspension of 0.5, 5 and 100 mg/kg RG7774 respectively, blood samples from all animals were taken at the selected time points: 0 (pre-dose) and 0.25, 0.5, 1, 2, 4, 7 and 24 h post dosing and subjected to the CB2 flow cytometry analysis (FIG. 11).\nIn this in vivo cyno study three cynomolgus monkeys were orally dosed with 100 mg/kg of RG7774. Blood sampling for TE-assay was performed at selected time points: −96, −24 (both time points not shown), 0 (predose) and 0.25, 0.5, 1, 2, 4, 7, 24, 31, 48 and 72 hours post-dosing (FIG. 12)."}, "CB2 [2]": {"target": "T1, CB2", "experiment": "In vitro CB2 internalization flow cytometry assay in Cynomolgus whole blood", "format": "cell-based, Cynomolgus monkey", "protocol": "FIG. 10: In vitro IC50 determination of CB2 internalization on B-cells in whole blood from Cynomolgus monkeys. Cynomolgus whole blood was incubated with RG7774 for 1 hour at 37° C. followed by incubation with the anti-human CB2 antibody 1/622. The expression of CB2 on the surface of B-cells was analyzed using a lineage marker mix specific for B-cells and T-cells. The B/T-cell CB2 MFI ratio was calculated and normalized to baseline. 0 μM was set as 100% baseline receptor expression.\nIn order to establish whether the CB2 surface assay is cross-reactive in Cynomolgus monkey, blood obtained from five different healthy Cynomolgus monkey has been tested in vitro and the individual IC50 values for RG7774 and maximum reduction of CB2 surface expression in whole blood determined using 8 different compound concentrations in duplicates (FIG. 10, Table 8)."}, "CB2 [3]": {"target": "T2, CB2 (Homo sapiens, UniProt P34972)", "T2 construct": "measured in whole blood samples from nine different healthy human volunteers of working-age; endogenous in cells; host or cells: B-cells (and basophils and other leukocytes) in human whole blood", "T2 sequence (P34972 whole entry)": "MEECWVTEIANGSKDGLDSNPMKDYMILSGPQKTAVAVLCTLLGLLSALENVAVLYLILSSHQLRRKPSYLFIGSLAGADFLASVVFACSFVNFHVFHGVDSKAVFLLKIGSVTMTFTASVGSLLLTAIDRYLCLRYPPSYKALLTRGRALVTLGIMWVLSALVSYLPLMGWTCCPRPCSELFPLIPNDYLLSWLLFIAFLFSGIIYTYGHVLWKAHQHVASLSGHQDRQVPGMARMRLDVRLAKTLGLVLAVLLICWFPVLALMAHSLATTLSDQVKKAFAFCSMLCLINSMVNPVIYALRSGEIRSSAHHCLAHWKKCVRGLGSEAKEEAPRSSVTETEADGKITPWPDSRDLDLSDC", "experiment": "Phase I clinical trial CB2 target engagement on B-cells in healthy volunteers", "format": "in vivo", "conditions": "for time of nadir (lowest CB2 surface expression) post-dose: single oral dose", "protocol": "FIG. 13: Arithmetic Mean (+SD) Percentage Change-from-Baseline (CFB) of CB2-Receptor Target Engagement on B-cells in Blood versus Time Following Single Oral Dose Administration of 0.75 mg to 300 mg RG7774 in the Fasted State (n=6 on active drug vs 2 on placebo per dose level).\nFIG. 14: Arithmetic Mean (+SD) Percentage Change-from-Baseline (CFB) of CB2-Receptor Target Engagement on B-cells in Blood versus Time Following Single Oral Dose Administration of 100 mg RG7774 in fasted and fed state.\nFIG. 15: Arithmetic Mean (+SD) Percentage Change-from-Baseline (CFB) of CB2-Receptor Target Engagement on B-cells in Blood versus Time Following Multiple Oral Dose Administration of 20 mg to 300 mg RG7774 once daily for 14 Days.\nThe clinical utility of the newly developed CB2 flow cytometry assay as a measure for target engagement in a clinical setting was confirmed by its successful implementation in a phase I clinical trial in healthy volunteers. In the clinical setting B/T-cell ratio was not used as it introduced higher variability relative to the baseline normalized B-cell data alone.\nIn a first step, oral administration of a single ascending dose (SAD) of RG7774 in the range between 0.75 mg and 300 mg in the fasted state was assessed. Following oral administration of RG774, the onset of CB2 internalization was rapid, with the nadir (lowest CB2 surface expression) achieved at 4 hours post-dose for doses below 10 mg RG7774, and at 1 hour post-dose for doses at 10 mg to 30 mg RG7774 (FIG. 13). For the two highest tested doses of 100 mg and 300 mg RG7774, the time to reach the nadir shifted with the area under the effect curve increasing. […] This indicates successful target engagement of RG7774 upon oral dosing. Furthermore, the assay was utilized to inform stopping rules for dose escalation in the SAD part of the first-in-human (FIH) trial.\nIn a third part of the FIH study, the effects of multiple ascending doses (MAD) of 20 mg to 300 mg RG7774 administered once daily over 14 days on CB2 internalization were investigated (FIG. 15)."}, "[4]": {"conditions": "20 mg to 300 mg once daily over 14 days"}},
  "data": [
    {"smiles": "Cn1nnnc1Cn1nnc2c(N3CC[C@H](O)C3)nc(C(C)(C)C)nc21", "note": "[RG7774, (S)-1-[5-tert-Butyl-3-(1-methyl-1H-tetrazol-5-ylmethyl)-3H-[1,2,3]triazolo [4,5-d]pyrimidin-7-yl]-pyrrolidin-3-ol]", "values": [
      {"measurement": "onset of pharmacodynamic effect on CB2 surface expression on B-cells", "setting": "CB2 [1]; 100 mg/kg oral", "value": "≤ 15", "unit": "min"},
      {"measurement": "duration of reduction of CB2 expression on B-cells", "setting": "CB2 [1]; single oral doses 0.5, 5 and 100 mg/kg", "value": "around 24 hours"},
      {"measurement": "reduction relative to individual baseline CB2 expression on B-cells", "setting": "CB2 [1]; single oral doses 0.5, 5 and 100 mg/kg micro suspension", "value": "dose dependent reduction"},
      {"measurement": "responder status in vivo", "setting": "CB2 [1]; three cynomolgus monkeys, 100 mg/kg oral", "value": "One out of three cynos is a non-responder"},
      {"measurement": "reduction of the CB2 expression", "setting": "CB2 [2]; T-cells, Monocytes and Granulocytes (data not shown)", "value": "has not been observed"},
      {"measurement": "responder status in vitro", "setting": "CB2 [2]; five Cynomolgus monkeys", "value": "One Cynomolgus out of five is a non-responder"},
      {"measurement": "desensitization of CB2 internalization", "setting": "CB2 [3]; [4]", "value": "no desensitization was observed"},
      {"measurement": "steady-state of PD effect", "setting": "CB2 [3]; [4]", "value": "steady-state was reached during the observation period"},
      {"measurement": "impact of food consumption on the pharmacodynamic (PD) effects", "setting": "CB2 [3]; 100 mg single dose, fasted (n=8) vs fed (n=8)", "value": "no relevant impact"},
      {"measurement": "time to reversal of reduction of CB2 surface receptor expression upon stopping the drug", "setting": "CB2 [3]; after 14 days once daily, not yet fully reversed for the two highest doses", "value": "~1", "unit": "week"},
      {"measurement": "extent of CB2 internalization (CB2 target engagement)", "setting": "CB2 [3]; single ascending dose 0.75 mg to 300 mg, fasted", "value": "increased dose-dependently"},
      {"measurement": "time of nadir (lowest CB2 surface expression) post-dose", "setting": "CB2 [3]; fasted, doses at 10 mg to 30 mg", "value": 1, "unit": "h"},
      {"measurement": "time of nadir (lowest CB2 surface expression) post-dose", "setting": "CB2 [3]; fasted, doses below 10 mg", "value": 4, "unit": "h"}
    ]}
  ]
}
